From PubChem BioAssay (NCI)
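Grown in 96-well plates, cells were treated for 48 hours with each compound at five concentrations. Insufficient inhibition: endpoint recorded as highest concentration tested. The concentration for 50% growth inhibition is given as GI50. TGI denotes the concentration required for complete inhibition of growth.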

What was measured:
Experiment in all cases: inhibition of tumour cell growth, NCI panel, 48 h
MALME-3M melanoma = tested on: MALME-3M melanoma
HCT-116 colon = tested on: HCT-116 colon
CAKI-1 renal = tested on: CAKI-1 renal
MDA-MB-231 breast = tested on: MDA-MB-231 breast
OVCAR-8 ovarian = tested on: OVCAR-8 ovarian
UACC-62 melanoma = tested on: UACC-62 melanoma
MCF7 breast = tested on: MCF7 breast
SF-295 CNS = tested on: SF-295 CNS
SR leukemia = tested on: SR leukemia
SF-268 CNS = tested on: SF-268 CNS
SNB-75 CNS = tested on: SNB-75 CNS
SK-MEL-5 melanoma = tested on: SK-MEL-5 melanoma
HOP-92 NSCLC = tested on: HOP-92 NSCLC
A549 NSCLC = tested on: A549 NSCLC
NCI-H226 lung = tested on: NCI-H226 lung
CCRF-CEM leukemia = tested on: CCRF-CEM leukemia
786-0 renal = tested on: 786-0 renal
OVCAR-3 ovarian = tested on: OVCAR-3 ovarian
HCT-15 colon = tested on: HCT-15 colon
U251 CNS = tested on: U251 CNS
LOX IMVI melanoma = tested on: LOX IMVI melanoma
NCI-H460 lung = tested on: NCI-H460 lung
OVCAR-5 ovarian = tested on: OVCAR-5 ovarian
DU-145 prostate = tested on: DU-145 prostate
A498 renal = tested on: A498 renal
NCI-H522 lung = tested on: NCI-H522 lung
COLO 205 colon = tested on: COLO 205 colon
RPMI-8226 leukemia = tested on: RPMI-8226 leukemia
TK-10 renal = tested on: TK-10 renal
HOP-62 NSCLC = tested on: HOP-62 NSCLC
UO-31 renal = tested on: UO-31 renal
NCI-H23 lung = tested on: NCI-H23 lung
MDA-MB-435 = tested on: MDA-MB-435
MOLT-4 leukemia = tested on: MOLT-4 leukemia
HS 578T breast = tested on: HS 578T breast
NCI/ADR-RES ovarian = tested on: NCI/ADR-RES ovarian
SNB-19 CNS = tested on: SNB-19 CNS
SK-OV-3 ovarian = tested on: SK-OV-3 ovarian
HT29 colon = tested on: HT29 colon
SK-MEL-2 melanoma = tested on: SK-MEL-2 melanoma
M14 melanoma = tested on: M14 melanoma
K-562 leukemia = tested on: K-562 leukemia
IGROV1 ovarian = tested on: IGROV1 ovarian
SW-620 colon = tested on: SW-620 colon
ACHN renal = tested on: ACHN renal
BT-549 breast = tested on: BT-549 breast
PC-3 prostate = tested on: PC-3 prostate
EKVX NSCLC = tested on: EKVX NSCLC
OVCAR-4 ovarian = tested on: OVCAR-4 ovarian
HL-60(TB) leukemia = tested on: HL-60(TB) leukemia
SN12C renal = tested on: SN12C renal
HCC-2998 colon = tested on: HCC-2998 colon
UACC-257 melanoma = tested on: UACC-257 melanoma
RXF 393 renal = tested on: RXF 393 renal
SK-MEL-28 melanoma = tested on: SK-MEL-28 melanoma
SF-539 CNS = tested on: SF-539 CNS

Structure (SMILES): CC1OC(O[C@@H]2[C@H](O)C(CO)OC(O[C@H]3COC(O[C@H]4CC[C@]5(C)[C@H]6CC[C@]78OC[C@@]9(CCC(C)(C)C[C@H]97)[C@H](O)C[C@@]8(C)[C@]6(C)CC[C@H]5C4(C)C)[C@@H](OC4OC(CO)[C@@H](O)[C@@H](O)[C@@H]4O)[C@@H]3O)[C@H]2OC2OC[C@@H](O)[C@@H](O)[C@@H]2O)[C@@H](O)[C@@H](O)[C@H]1O (some centres not stated)
- GI50 (MALME-3M melanoma): 2580 nM
- TGI (MALME-3M melanoma): 4960 nM
- GI50 (HCT-116 colon): 1780 nM
- TGI (HCT-116 colon): 3680 nM
- GI50 (CAKI-1 renal): 2390 nM
- TGI (CAKI-1 renal): 4510 nM
- GI50 (MDA-MB-231 breast): 2070 nM
- TGI (MDA-MB-231 breast): 4180 nM
- GI50 (OVCAR-8 ovarian): 3500 nM
- TGI (OVCAR-8 ovarian): 6830 nM
- GI50 (UACC-62 melanoma): 2270 nM
- TGI (UACC-62 melanoma): 4340 nM
- GI50 (MCF7 breast): 2230 nM
- TGI (MCF7 breast): 4830 nM
- GI50 (SF-295 CNS): 2580 nM
- TGI (SF-295 CNS): 4760 nM
- GI50 (SR leukemia): 16.9 nM
- TGI (SR leukemia): 1520 nM
- GI50 (SF-268 CNS): 2550 nM
- TGI (SF-268 CNS): 5130 nM
- GI50 (SNB-75 CNS): 256 nM
- TGI (SNB-75 CNS): 1410 nM
- GI50 (SK-MEL-5 melanoma): 2270 nM
- TGI (SK-MEL-5 melanoma): 4370 nM
- GI50 (HOP-92 NSCLC): 1850 nM
- TGI (HOP-92 NSCLC): 3810 nM
- GI50 (A549 NSCLC): 3070 nM
- TGI (A549 NSCLC): 5910 nM
- GI50 (NCI-H226 lung): 2730 nM
- TGI (NCI-H226 lung): 5730 nM
- GI50 (CCRF-CEM leukemia): 698 nM
- TGI (CCRF-CEM leukemia): 3260 nM
- GI50 (786-0 renal): 2800 nM
- TGI (786-0 renal): 5160 nM
- GI50 (OVCAR-3 ovarian): 2750 nM
- TGI (OVCAR-3 ovarian): 5040 nM
- GI50 (HCT-15 colon): 2520 nM
- TGI (HCT-15 colon): 4780 nM
- GI50 (U251 CNS): 2690 nM
- TGI (U251 CNS): 5130 nM
- GI50 (LOX IMVI melanoma): 2060 nM
- TGI (LOX IMVI melanoma): 4110 nM
- GI50 (NCI-H460 lung): 2620 nM
- TGI (NCI-H460 lung): 5350 nM
- GI50 (OVCAR-5 ovarian): 2520 nM
- TGI (OVCAR-5 ovarian): 4920 nM
- GI50 (DU-145 prostate): 2470 nM
- TGI (DU-145 prostate): 4920 nM
- GI50 (A498 renal): 2440 nM
- TGI (A498 renal): 4590 nM
- GI50 (NCI-H522 lung): 2450 nM
- TGI (NCI-H522 lung): 4690 nM
- GI50 (COLO 205 colon): 2290 nM
- TGI (COLO 205 colon): 4500 nM
- GI50 (RPMI-8226 leukemia): 1930 nM
- TGI (RPMI-8226 leukemia): 4680 nM
- GI50 (TK-10 renal): 3590 nM
- TGI (TK-10 renal): 5970 nM
- GI50 (HOP-62 NSCLC): 2570 nM
- TGI (HOP-62 NSCLC): 4940 nM
- GI50 (UO-31 renal): 323 nM
- TGI (UO-31 renal): 1140 nM
- GI50 (NCI-H23 lung): 1910 nM
- TGI (NCI-H23 lung): 4140 nM
- GI50 (MDA-MB-435): 2160 nM
- TGI (MDA-MB-435): 4220 nM
- GI50 (MOLT-4 leukemia): 535 nM
- TGI (MOLT-4 leukemia): 3270 nM
- GI50 (HS 578T breast): 2450 nM
- TGI (HS 578T breast): 5500 nM
- GI50 (NCI/ADR-RES ovarian): 2640 nM
- TGI (NCI/ADR-RES ovarian): 5400 nM
- GI50 (SNB-19 CNS): 2140 nM
- TGI (SNB-19 CNS): 4430 nM
- GI50 (SK-OV-3 ovarian): 2410 nM
- TGI (SK-OV-3 ovarian): 4530 nM
- GI50 (HT29 colon): 2800 nM
- TGI (HT29 colon): 5230 nM
- GI50 (SK-MEL-2 melanoma): 2320 nM
- TGI (SK-MEL-2 melanoma): 4570 nM
- GI50 (M14 melanoma): 1440 nM
- TGI (M14 melanoma): 3350 nM
- GI50 (K-562 leukemia): 2950 nM
- TGI (K-562 leukemia): 5980 nM
- GI50 (IGROV1 ovarian): 2310 nM
- TGI (IGROV1 ovarian): 4650 nM
- GI50 (SW-620 colon): 2550 nM
- TGI (SW-620 colon): 5120 nM
- GI50 (ACHN renal): 621 nM
- TGI (ACHN renal): 2570 nM
- GI50 (BT-549 breast): 2360 nM
- TGI (BT-549 breast): 4550 nM
- GI50 (PC-3 prostate): 2560 nM
- TGI (PC-3 prostate): 4770 nM
- GI50 (EKVX NSCLC): 3040 nM
- TGI (EKVX NSCLC): 5480 nM
- GI50 (OVCAR-4 ovarian): 2250 nM
- TGI (OVCAR-4 ovarian): 4820 nM
- GI50 (HL-60(TB) leukemia): 345 nM
- TGI (HL-60(TB) leukemia): 700 nM
- GI50 (SN12C renal): 1680 nM
- TGI (SN12C renal): 3560 nM
- GI50 (HCC-2998 colon): 1560 nM
- TGI (HCC-2998 colon): 3390 nM
- GI50 (UACC-257 melanoma): 2850 nM
- TGI (UACC-257 melanoma): 5170 nM
- GI50 (RXF 393 renal): 566 nM
- TGI (RXF 393 renal): 2850 nM
- GI50 (SK-MEL-28 melanoma): 809 nM
- TGI (SK-MEL-28 melanoma): 2770 nM
- GI50 (SF-539 CNS): 1550 nM
- TGI (SF-539 CNS): 3510 nM
